Assays:
[1] = test system: human prostate cancer cell line DU145; test: Inhibition of proliferation of prostate cancer cell line DU145 (CellTiter Glo luminescence); assay type: cell-based; settings: DU145 cells; for inhibitory activity against cell proliferation: cell-penetrating peptide substituted or removed, same way as Example 2; for cell proliferation (without synthetic peptide set to 100): final concentration 30 μM
Protocol: (§1) Human prostate cancer cell line DU145 was cultured in DMEM containing 10% fetal cattle serum (FCS) at 37° C. and 5% CO2 with passaging. DU145 cells were seeded into 96-well plates at 5000 cells/well, then cultured at 37° C. for 24 hours, and then further cultured for 48 hours in 10% FCS-containing DMEM that contains each of the synthesized peptides of Example 1 at a final concentration of 1 μM, 10 μM, 50 μM or 100 μM. The medium was discarded after culturing, and then 25 μL of 50-fold diluted solution of CellTiter Glo Reagent (Promega) (diluted with PBS (−) containing 0.1% NP-40) was added to each well. Next, the resulting solution was shaken at room temperature for 10 minutes, and then luminescence level was measured with a plate reader (Infinite M200, Tecan). A relative luminescence level of each synthetic peptide was calculated when the average luminescence level measured for control cells cultured in 10% FCS-containing DMEM without any synthetic peptide was set to 100, and was used as an index of cell proliferation.
The peptides listed in Table 2 below were designed and evaluated for their inhibitory activities against proliferation of DU145 cells in the same way as in Example 2. Each of the peptides 4T-2-D-1-4, 4H-2-D-1-4 and 4F-2-D-1-4 is a peptide in which the octaarginine sequence of the peptide 42-D-1-4 is substituted with an amino acid sequence of another cell-penetrating peptide, and each has, from the N-terminal side, an amino acid sequence of TAT peptide, HTLV-II-Rex or FHV coat (35-49), a linker sequence of one Gly residue, and an amino acid sequence corresponding to G45-Y51 of the PH domain. The peptides #R8(−)-2-D-1, #R8(−)-2-D-1-4 and #R8(−)-6-A-2 are peptides with the octaarginine sequence and the linker sequence removed from the peptides #2-D-1, #2-D-1-4 and #6-A-2, respectively.
The peptides listed in Table 3 below were designed and evaluated for their inhibitory activities against proliferation of DU145 cells, in the same way as in Example 2 except that the final concentrations of the synthetic peptides were set to 3 μM, 10 μM and 30 μM. The peptides #2-D-1-4-1A to #2-D-1-4-7A are peptides in which GLTIYFY (SEQ ID NO: 36) of peptide #2-D-1-4 was substituted with Ala one by one from the N-terminal side.

[2] = test system: human cervical cancer cell line HeLa; test: Inhibition of proliferation of HeLa cells; assay type: cell-based; settings: same manner as Example 2
[3] = test system: human liver cancer cell line Hep3B; test: Inhibition of proliferation of Hep3B cells; assay type: cell-based; settings: same manner as Example 2
[4] = test system: human lung cancer cell line A549; test: Inhibition of proliferation of A549 cells; assay type: cell-based; settings: A549, same manner as Example 2
[5] = test system: human glioma cell line U251; test: Inhibition of proliferation of U251 cells; assay type: cell-based; settings: U251, same manner as Example 2
[6] = test system: human melanoma cell line A375; test: Inhibition of proliferation of A375 cells; assay type: cell-based; settings: A375, same manner as Example 2
Protocol: as §1, with “proliferation. […]” for “proliferation.”

[7] = test system: human pancreatic cancer cell line BxPC3; test: Inhibition of proliferation of BxPC3 cells; assay type: cell-based; settings: BxPC3, same manner as Example 2
[8] = test system: human breast cancer cell line T47D; test: Inhibition of proliferation of T47D cells; assay type: cell-based; settings: cultured 96 hours with peptide
Cyclin D1 (Ccnd1) = test: Real-time PCR of Cyclin D1 gene expression in DU145 cells; assay type: cell-based, human; settings: peptide 10 μM, 15 and 30 minutes
Protocol: (§2) DU145 cells, cultured in DMEM containing 10% fetal cattle serum (FCS) at 37° C. and 5% CO2 with passage, were seeded into 6-well plates at 5.0×10^5 cells/well, and then cultured at 37° C. for 24 hours. The cells were incubated for 2 hours in serum-free DMEM. Then, the synthetic peptide #2-D-1-4 (final concentration 10 μM) was added, and cells were collected 15 minutes later and 30 minutes later. Cells without addition of any synthetic peptide were prepared in the same way.
(§3) Total RNA was extracted from the cells with use of TRIzol (Thermo Fisher Scientific). cDNA was synthesized from the total RNA with use of ReverTra Ace (TOYOBO) and random hexamer primers. Real-time PCR was carried out with the following primer sets and MX3000P (Agilent Technologies, Inc.) to measure the relative gene expression levels of Cyclin D1 (Ccnd1), which is associated with cell proliferation, and Survivin, which is associated with cancer cell survival.

Survivin = test: Real-time PCR of Survivin gene expression in DU145 cells; assay type: cell-based, human; settings: peptide 10 μM, 15 and 30 minutes
Protocol: as §2, §3

[9] = target: T1, EGFR/STAP-2 interaction (EGFR-HA and GST-STAP-2) (Homo sapiens, UniProt P00533, C187G/DEL142-186); test: GST pull-down and immunoblot of EGFR/STAP-2 interaction; assay type: binding; settings: HEK293T lysate, peptide 1 μM or 50 μM, 4° C. 1 hour
T1 construct: expressed in transfected cells; host or cells: HEK293T

DU145 cells = test: Antitumor effect in DU145 tumor-bearing model; assay type: in vivo, BALB/c nude mice; settings: 2 mg/body intratumoral
Protocol: DU145 cells (5.0×10^6 cells) were injected subcutaneously into right flank of BALB/c nude mice (female, 4 weeks old). On days 14, 17 and 20 after implantation, solvent (5% DMSO, control) or the synthetic peptide #2-D-1-4 (2 mg/body) was intratumorally administered. Tumor diameters were measured with calipers every 3 days starting on day 14 after implantation, and tumor volumes (longer diameter×shorter diameter×shorter diameter/2) were calculated. The mice were euthanized on day 32 after implantation, then tumor mass were collected and their weights were measured.

Substance: GLTIYFY [#R8(−)-2-D-1-4]
- inhibitory activity against cell proliferation [1]: none

Substance: GRKKRRQRRRPPQGGLTIYFY [#T-2-D-1-4]
- inhibitory activity against cell proliferation [1]: the same extent of inhibitory activity against cell proliferation as that of the peptide #2-D-1-4

Substance: QGLTIYFYN [#R8(−)-2-D-1]
- inhibitory activity against cell proliferation [1]: none

Substance: RRRRRRRRGG GLAIYFY (RRRRRRRRGGGLAIYFY) [#2-D-1-4-3A]
- cell proliferation (without synthetic peptide set to 100) [1]: approximately 50%

Substance: TRRQRTRRARRNRGGLTIYFY [#H-2-D-1-4]
- inhibitory activity against cell proliferation [1]: the same extent of inhibitory activity against cell proliferation as that of the peptide #2-D-1-4

Substance: VVELRVP [#R8(−)-6-A-2]
- inhibitory activity against cell proliferation [1]: none

Substance: RRRRNRTRRNRRRVRGGLTIYFY [#F-2-D-1-4]
- inhibitory activity against cell proliferation [1]: the same extent of inhibitory activity against cell proliferation as that of the peptide #2-D-1-4

Substance: RRRRRRRRGG GLTIYAY (RRRRRRRRGGGLTIYAY) [#2-D-1-4-6A]
- cell proliferation (without synthetic peptide set to 100) [1]: approximately 50%

Substance: RRRRRRRRGG GLTIYFY (RRRRRRRRGGGLTIYFY) [#2-D-1-4]
- activity to inhibit proliferation [2]: exhibited the activity to inhibit proliferation
- activity to inhibit proliferation [3]: exhibited the activity to inhibit proliferation
- activity to inhibit proliferation [4]: exhibited the activity to inhibit proliferation
- activity to inhibit proliferation [5]: exhibited the activity to inhibit proliferation
- activity to inhibit proliferation [6]: exhibited the activity to inhibit proliferation
- activity to inhibit proliferation [7]: exhibited the activity to inhibit proliferation
- activity to inhibit proliferation [8]: exhibited the activity to inhibit proliferation
- gene expression level of Ccnd1 (Cyclin D1 (Ccnd1)): reduced
- gene expression level of Survivin (Survivin): reduced
- complex between EGFR-HA and GST-STAP-2 in pull-down fraction [9]: not detected
- final weight of the tumor mass compared to the control (DU145 cells; days 14, 17 and 20, day 32 after implantation): significant reduction
- tumor volume compared to the control (DU145 cells; days 14, 17 and 20 after implantation): inhibition of increase in tumor volume

Substance: RRRRRRRRGG GATIYFY (RRRRRRRRGGGATIYFY) [#2-D-1-4-2A]
- cell proliferation (without synthetic peptide set to 100) [1]: approximately 50%

Source: patent publication US20240043476A1, “ANTI-TUMOR PEPTIDE AND USE THEREOF” (National University Corporation Hokkaido University, priority 2020, published 2024)
